Test results taken from ChEMBL document CHEMBL3603820, “Discovery of a novel 2,3,11,11a-tetrahydro-1H-pyrazino[1,2-b]isoquinoline-1,4(6H)-dione series promoting neurogenesis of human neural progenitor cells” (Bioorg Med Chem Lett, 2015).
Blank lines part the entries; values can stand above or below the molecule they belong to. Active and inactive are the calls of the source. The calls are words filed in the database; no cut-off is given here.

How the values were obtained:
[1] = (§1) Induction of neurogenesis in human H9-derived neuronal progenitor cells at 10 uM assessed as increase in Tuj1 positive cells; type: functional, Neuronal progenitor cell
Neuronal progenitor cell [2] = experiment: as §1; type: functional
Mus musculus [3] = experiment: Induction of neurogenesis in C57BL/6 mouse assessed as increase in BrdU+NeuN+/BrdU+ cells in dentate gyrus at 8.5 mg/kg, ip qd for 7 days and measured on day 14 by immunohistochemistry relative to control; type: functional
[4] = AUC (0 to t) in C57BL/6 mouse plasma at 13.4 mg/kg, ip; type: ADME, organism-based
[5] = Unbound fraction in C57BL/6 mouse brain; type: ADME, tissue-based; settings: brain tissue
Brain [6] = experiment: Dose normalized AUC in C57BL/6 mouse brain at 1.81 mg/kg, po; type: ADME, organism-based; settings: in vivo
Plasma [7] = experiment: Dose normalized AUC in C57BL/6 mouse plasma at 1.81 mg/kg, po; type: ADME, organism-based; settings: in vivo
[8] = Ratio of drug level in brain to plasma in C57BL/6 mouse at 1.81 mg/kg, po; type: ADME, organism-based; settings: read-out: BPR
[9] = Tmax in C57BL/6 mouse plasma at 1.81 mg/kg, po; type: ADME, organism-based
[10] = Cmax in C57BL/6 mouse plasma at 13.4 mg/kg, ip; type: ADME, organism-based; design: dose 13.4 mg/kg, route intraperitoneal
[11] = Cmax in C57BL/6 mouse plasma at 1.81 mg/kg, po; type: ADME, organism-based; design: dose 1.81 mg/kg, route oral
[12] = Half life in C57BL/6 mouse plasma at 13.4 mg/kg, ip; type: ADME, organism-based
Plasma [13] = experiment: Plasma concentration in C57BL/6 mouse at 13.4 mg/kg, ip; type: ADME, organism-based; settings: in vivo
Plasma [14] = experiment: Dose normalized AUC in C57BL/6 mouse plasma at 13.4 mg/kg, ip; type: ADME, organism-based; settings: in vivo
Mus musculus [15] = experiment: Induction of neurogenesis in C57BL/6 mouse assessed as increase in BrdU+NeuN+/BrdU+ cells in dentate gyrus at 8.5 mg/kg, ip qd for 7 days and measured on day 14 by immunohistochemistry relative to vehicle control; type: functional
Brain [16] = experiment: Drug concentration in C57BL/6 mouse brain at 13.4 mg/kg, ip; type: ADME, organism-based; settings: in vivo, read-out: Drug uptake
[17] = AUC (0 to t) in C57BL/6 mouse brain at 1.81 mg/kg, po; type: ADME, organism-based
[18] = Tmax in C57BL/6 mouse plasma at 13.4 mg/kg, ip; type: ADME, organism-based
[19] = Tmax in C57BL/6 mouse brain at 1.81 mg/kg, po; type: ADME, organism-based
[20] = Cmax in C57BL/6 mouse brain at 1.81 mg/kg, po; type: ADME, organism-based; design: dose 1.81 mg/kg, route oral
[21] = AUC (0 to t) in C57BL/6 mouse plasma at 1.81 mg/kg, po; type: ADME, organism-based
[22] = Ratio of drug level in brain to plasma in mouse; type: ADME, organism-based; settings: read-out: BPR
[23] = Toxicity in mouse neuronal progenitor cells at 0.1 to 10 uM assessed as increase in DAPI positive cells; type: cell-based; settings: neuronal progenitor cell
[24] = Toxicity in human H9-derived neuronal progenitor cells at 0.1 to 10 uM assessed as increase in DAPI positive cells; type: cell-based; settings: neuronal progenitor cell
[25] = Induction of neurogenesis in mouse neuronal progenitor cells at 0.1 to 10 uM assessed as increase in Tuj1 positive cells; type: functional, Neuronal progenitor cell
[26] = Induction of neurogenesis in human H9-derived neuronal progenitor cells at 0.1 to 10 uM assessed as increase in Tuj1 positive cells; type: functional, Neuronal progenitor cell
Neuronal progenitor cell [27] = experiment: Induction of neurogenesis in human H9-derived neuronal progenitor cells at 0.3125 to 10 uM assessed as increase in Tuj1 protein levels incubated for 5 days by Western blotting method; type: functional

Structure (SMILES): O=C1[C@H]2Cc3ccc(OCc4cccc(Cl)c4)cc3CN2C(=O)CN1C1CCCC1
fold change (FC) [1]: 2.29

Structure (SMILES): N#Cc1cccc(COc2ccc3c(c2)CN2C(=O)CN(C4CCN(CC(F)F)CC4)C(=O)[C@H]2C3)c1
fold change (FC) (Neuronal progenitor cell [2]): inactive

Structure (SMILES): N#Cc1cccc(COc2ccc3c(c2)CN2C(=O)CN(C4CCNCC4(F)F)C(=O)[C@H]2C3)c1 (stereo not given in full)
fold change (FC) [1]: 1.78

AUC(0-t) [4]: 10500 ng·h/mL
fraction unbound [5]: 0.02
AUC/dose (Brain [6]): 155 ng·h/mL/mg/kg
AUC/dose (Plasma [7]): 296 ng·h/mL/mg/kg
Kp [8]: 0.1
Tmax [9]: 1 h
Cmax [10]: 3500 ng/mL
Cmax [11]: 126 ng/mL
half-life [12]: 4.95 h
concentration (Plasma [13]): 8.4 µM
AUC/dose (Plasma [14]): 794 ng·h/mL/mg/kg
concentration (Brain [16]): 6.1 µM
AUC(0-t) [17]: 280 ng·h/mL
Tmax [18]: 0.25 h
Tmax [19]: 1 h
Cmax [20]: 92 ng/mL
AUC(0-t) [21]: 534 ng·h/mL
Structure (SMILES): N#Cc1cccc(COc2ccc3c(c2)CN2C(=O)CN(C4CCCC4)C(=O)[C@H]2C3)c1
fold change (FC) (Mus musculus [3]): 1.3
fold change (FC) [1]: 2.35
Activity (Mus musculus [15]): 11.7%

Structure (SMILES): N#Cc1cccc(COc2ccc3c(c2)CN2C(=O)CN(C4CCNCC4)C(=O)[C@H]2C3)c1
fold change (FC) (Neuronal progenitor cell [2]): inactive

Structure (SMILES): N#Cc1cccc(COc2ccc3c(c2)CN2C(=O)[C@H](CO)N(C4CCCC4)C(=O)[C@H]2C3)c1
fold change (FC) (Neuronal progenitor cell [2]): inactive

Structure (SMILES): N#Cc1cccc(OCc2ccc3c(c2)CN2C(=O)CN(C4CCCC4)C(=O)[C@H]2C3)c1
fold change (FC) [1]: 2

Structure (SMILES): CCNC(=O)c1cccc(COc2ccc3c(c2)CN2C(=O)CN(C4CCCC4)C(=O)[C@H]2C3)c1
fold change (FC) [1]: 1.65

Structure (SMILES): COC[C@H]1C(=O)N2Cc3cc(OCc4cccc(C#N)c4)ccc3C[C@@H]2C(=O)N1C1CCCC1
fold change (FC) [1]: 1.55

Structure (SMILES): O=C1[C@H]2Cc3ccc(OCc4cccc(F)c4)cc3CN2C(=O)CN1C1CCCC1
fold change (FC) [1]: 1.83

Structure (SMILES): N#Cc1cccc(COc2ccc3c(c2)CN2C(=O)CN(C4CCN(CC(F)(F)F)CC4)C(=O)[C@H]2C3)c1
fold change (FC) (Neuronal progenitor cell [2]): inactive

Structure (SMILES): CCN(Cc1cccc(C#N)c1)c1ccc2c(c1)CN1C(=O)CN(C3CCCCC3)C(=O)[C@H]1C2
fold change (FC) [1]: 1.45

Structure (SMILES): N#Cc1cccc(COc2ccc3c(c2)CN2C(=O)CN(C4CCOCC4)C(=O)[C@H]2C3)c1
fold change (FC) (Neuronal progenitor cell [2]): inactive

Structure (SMILES): C[C@H]1C(=O)N2Cc3cc(OCc4cccc(C#N)c4)ccc3C[C@@H]2C(=O)N1C1CCCC1
fold change (FC) [1]: 1.98

Structure (SMILES): N#Cc1cccc(COc2ccc3c(c2)CN2C(=O)CN(CC4CCC4)C(=O)[C@H]2C3)c1
fold change (FC) [1]: 2.12

Structure (SMILES): N#Cc1cccc(COc2ccc3c(c2)CN2C(=O)CN(C4CCCC4)C(=O)[C@@H]2C3)c1
fold change (FC) (Neuronal progenitor cell [2]): inactive

Structure (SMILES): N#Cc1cccc(COc2ccc3c(c2)CN2C(=O)CN(C4CCCCC4)C(=O)[C@H]2C3)c1
fold change (FC) [1]: 2.02

Structure (SMILES): O=C1[C@H]2Cc3ccc(OCc4ccccc4)cc3CN2C(=O)CN1C1CCCC1
fold change (FC) [1]: 2.07

Kp [22]: 0.5
Structure (SMILES): N#Cc1cccc(COc2ccc3c(c2Br)CN2C(=O)CN(C4CCCC4)C(=O)[C@H]2C3)c1
Activity [23]: Non-toxic
Activity [24]: Non-toxic
fold change (FC) [1]: 1.9
fold change (FC) [25]: 1.2
fold change (FC) [26]: 1.8
Activity (Neuronal progenitor cell [27]): Dose-dependent effect

Structure (SMILES): N#Cc1csc(COc2ccc3c(c2)CN2C(=O)CN(C4CCCC4)C(=O)[C@H]2C3)c1
fold change (FC) [1]: 1.74

Structure (SMILES): CN(Cc1cccc(C#N)c1)c1ccc2c(c1)CN1C(=O)CN(C3CCCCC3)C(=O)[C@H]1C2
fold change (FC) [1]: 1.67

Structure (SMILES): O=C1[C@H]2Cc3ccc(OCc4ccc(Cl)cc4)cc3CN2C(=O)CN1C1CCCC1
fold change (FC) [1]: 2.09

Structure (SMILES): N#Cc1cccc(COc2ccc3c(c2)CN2C(=O)CN(CC4CC4)C(=O)[C@H]2C3)c1
fold change (FC) [1]: 1.57

Structure (SMILES): C[C@@H]1C(=O)N2Cc3cc(OCc4cccc(C#N)c4)ccc3C[C@@H]2C(=O)N1C1CCCC1
fold change (FC) [1]: 2.41

Structure (SMILES): CCOC(=O)C[C@H]1CC[C@H](N2CC(=O)N3Cc4cc(OCc5cccc(C#N)c5)ccc4C[C@@H]3C2=O)CC1
fold change (FC) [1]: 1.69

Structure (SMILES): N#Cc1cccc(COc2ccc3c(c2)CN2C(=O)[C@@H](CO)N(C4CCCC4)C(=O)[C@H]2C3)c1
fold change (FC) [1]: 2.36

Structure (SMILES): N#Cc1cccc(CNc2ccc3c(c2)CN2C(=O)CN(C4CCCCC4)C(=O)[C@H]2C3)c1
fold change (FC) [1]: 1.53

Structure (SMILES): N#Cc1cccc(COc2ccc3c(c2)CN2C(=O)CN(C4CCN(CCF)CC4)C(=O)[C@H]2C3)c1
fold change (FC) [1]: 1.91

Structure (SMILES): COC[C@@H]1C(=O)N2Cc3cc(OCc4cccc(C#N)c4)ccc3C[C@@H]2C(=O)N1C1CCCC1
fold change (FC) [1]: 2.36

Structure (SMILES): O=C1[C@H]2Cc3ccc(OCc4cccc(N5CCOCC5)c4)cc3CN2C(=O)CN1C1CCCC1
fold change (FC) [1]: 2.06
